For one assay, the system named is microglia (OX-42). Description: Microglial activation in spinal cord of SNI model, OX-42 staining. In kind it is in vivo, Sprague-Dawley rats. Conditions: spinal cord L4-L5, 4 weeks after nerve injury. As for the experimental part: (§1) To be used as a peripheral nerve injury animal model, a sciatic nerve injury (SNI) model was prepared (FIG. 1C). Specifically, 200 to 220 g of male adult Sprague-Dawley rats were anesthetized by intraperitoneal injection of chloral hydrate (500 mg/kg), and then three terminal branches (tibial, common peroneal, and sural nerves) of the right sciatic nerve were approached, and the tibia nerve and the peroneal nerve were tightly ligated with 4-0 silk, and neurectomy was performed at a distal 3 mm position of the ligation site. At this time, a Sham group was a group that exposed only the sciatic nerve without damage.
(§2) To analyze the activation of microglia in the spinal cord, which were known to play an important role in the induction/persistence of neuropathic pain, 4 weeks after nerve injury in the SNI animal model, the spinal cord of 4 and 5 lumbar vertebrae was stained with OX-42 to confirm changes in cell shape and intensity. […] The supernatant was transferred to a new microcentrifuge, the protein concentration was measured using a BCA kit, and samples for Western blot were prepared by adding a 1× sample buffer and boiling for 5 minutes. […]

The next assay deals with p38MAPK. Description: p38MAPK phosphorylation in spinal cord of SNI model, Western blot. Type of assay: in vivo, Sprague-Dawley rats. As for the experimental part:
as §1, §2
On the technique in general: In western blotting, separated proteins are transferred to a membrane and probed.

For the next assay, the system named is astrocytes (GFAP). Kind of assay: Astrocyte activation in spinal cord of SNI model, GFAP immunohistochemistry and Western blot. In kind it is in vivo, Sprague-Dawley rats. To be noted: L4-5 spinal cord.
The test system of a further assay is Occludin. Kind of assay: Tight junction protein Occludin in bladder of SCI model, Western blot and immunofluorescence. Type of assay: in vivo, Sprague-Dawley rats.
The test system of assay [1] is inflammatory factors in Raw 264.7 cell line. Description: Inflammatory factor mRNA in LPS-stimulated Raw 264.7 macrophage cell line, RT-PCR. Type of assay: cell-based. To be noted: LPS-treated Raw 264.7, RT-PCR. As for the experimental part: In order to determine whether YJ102 affected the production of proNGF as a ligand of p75, the expression of proNGF in the bladder was confirmed by RT-PCR, Western blot analysis, and immunofluorescence staining. In addition, for further verification, a macrophage cell line Raw 264.7 (Korea Cell Line Bank, Seoul, Korea) was stimulated with 1 μg/ml of LPS, and the effect of YJ102 on the production of proNGF was investigated. At this time, YJ102 was dissolved in DMSO and treated 30 minutes before LPS treatment.
To confirm the effect of YJ102 on the expression of inflammatory factors in the bladder after spinal cord injury, the expression of inflammatory cytokines and chemokines, COX-2, iNOS, IL-6, IL-1β, MIP-1α, MIP-1β, MIP-2a, and Gro-α in bladder tissue was confirmed by RT-PCR analysis and Western blot analysis using the primers in Table 2 above. In addition, even in the Raw 264.7 cell line, the expression was verified by RT-PCR analysis.

Assay [2] deals with skin tissue of psoriasis mouse model. Description: Epidermal layer thickness and dermal cell introduction (H&E) in IMQ psoriasis model. In kind it is in vivo, C57BL/6 mouse. To be noted: 5 mg/kg i.p. Days 2-4, Day 6. As for the experimental part:
Psoriasis caused by excessive production of skin cells was a chronic skin disease associated with various factors, including autoimmune diseases, and its symptoms included red and thickened skin and abnormally occurring scaling. […] Specifically, the back region of a C57BL/6 mouse (male, 18 to 20 g, 8 weeks) (Daehan Biolink, Eumseong, Korea) was shaved to remove hair, and then applied with IMQ cream (83 mg/day) (5%) for consecutive 5 days from Day 0 to Day 4 to induce psoriasis-like skin inflammation, and a normal control mouse (Sham) was applied with Vaseline cream (FIG. 16A).
In order to confirm the effect of YJ102 (Chemical Formula 1), a compound of the present disclosure, on psoriasis, YJ102 dissolved in DMSO, methyl pyrrolidinone, and water (1:1.5:1) was administered intraperitoneally (5 mg/kg) for a total of 3 days on Day 2, Day 3, and Day 4, and the Vehicle group was administered in the same amount of a solution of DMSO, methyl pyrrolidinone, and water (1:1.5:1) (FIG. 16A). To assess daily skin changes, PASI scores were used for erythema and scaling. The PASI score was evaluated as a severity scale of 0 to 4, in which 0 meant none, 1 meant mild, 2 meant moderate, 3 meant severe, and 4 meant very severe. […]
On day 6, the skin tissue of the psoriasis mouse model was stained with Hematoxyline & Eosin, and the epidermal layer thickness was measured. […]

Turning to `CCc1ccc(N(C(=O)COC)c2nc3cc(Cl)ccc3o2)cc1` [YJ102], the “microglia activation changes (OX-42 intensity)” value in the assay on microglia (OX-42) is “significantly reduced”. The “amount of p-p38MAPK” value with p38MAPK is “significantly reduced”. In addition, the GFAP expression result with astrocytes (GFAP) (Western blot) is reported as “significantly decreased”. Also, in the assay with astrocytes (GFAP) (immunohistochemistry), the GFAP expression intensity entry was “significantly decreased”. For the same compound, the “reduction in amount of Occludin” value in the assay on Occludin (SCI day 1, Western blot) is on record as “significantly inhibited”. For the same compound, in the assay on Occludin (after SCI, immunofluorescence), the “reduction in Occludin in the urothelium” value is “inhibited”. In addition, in assay [1], the “mRNA level of COX-2” value was “significantly reduced”, the “mRNA level of IL-1β” value is listed as “significantly reduced”, the “mRNA level of IL-6” value is “significantly reduced” and the “mRNA level of TNF-α” value was “significantly reduced”. Further, the “mRNA level of iNOS” value in assay [1] is on record as “significantly reduced”. Also, in assay [2], the “number of cells introduced into the dermal layer” value was “decreased to the Sham level” and the “reduction of epidermal layer thickness compared to Vehicle group” value is “approximately 35%”.

Values taken from US20260335293A1, “USE OF NOVEL COMPOUND FOR TREATING INTRACTABLE DISEASES” (YJ CERAPEUTICS INC., priority 2023, published 2026).
